From ChEMBL document CHEMBL2417375 (Bioorg Med Chem Lett, 2013)

These molecules were tested against Mu-type opioid receptor (Mus musculus) (UniProt P42866) (assay: Agonist activity at mouse mu opioid receptor expressed in CHO cells assessed as stimulation of [35S]-GTPgammaS binding after 1.5 hrs relative to DAMGO).
Type: functional, cell-based

Chain of Mu-type opioid receptor (Mus musculus) (P42866 whole entry): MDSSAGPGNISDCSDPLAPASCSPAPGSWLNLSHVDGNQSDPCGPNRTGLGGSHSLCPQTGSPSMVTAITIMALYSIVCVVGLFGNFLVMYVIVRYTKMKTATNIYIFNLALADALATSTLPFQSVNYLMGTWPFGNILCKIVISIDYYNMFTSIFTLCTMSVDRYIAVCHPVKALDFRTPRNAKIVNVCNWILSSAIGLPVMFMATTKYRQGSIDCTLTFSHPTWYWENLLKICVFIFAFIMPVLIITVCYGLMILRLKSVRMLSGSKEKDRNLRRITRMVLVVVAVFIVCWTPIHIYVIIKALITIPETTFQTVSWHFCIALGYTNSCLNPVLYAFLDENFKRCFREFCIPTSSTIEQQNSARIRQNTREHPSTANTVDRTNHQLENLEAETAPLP

| SMILES | Emax |
| --- | --- |
| Cc1nc(C(=O)N[C@H]2CC[C@@]3(O)[C@H]4Cc5ccc(O)c6c5[C@@]3(CCN4CC3CC3)[C@H]2O6)cc2ccccc12 | 22.2% |
| O=C(N[C@H]1CC[C@@]2(O)[C@H]3Cc4ccc(O)c5c4[C@@]2(CCN3CC2CC2)[C@H]1O5)c1ncc2ccccc2c1O | 20.5% |
| O=C(N[C@H]1CC[C@@]2(O)[C@H]3Cc4ccc(O)c5c4[C@@]2(CCN3CC2CC2)[C@H]1O5)c1ncc2ccccc2n1 | 21.6% |
| N#Cc1nc(C(=O)N[C@H]2CC[C@@]3(O)[C@H]4Cc5ccc(O)c6c5[C@@]3(CCN4CC3CC3)[C@H]2O6)cc2ccccc12 | 37.5% |
| O=C(N[C@H]1CC[C@@]2(O)[C@H]3Cc4ccc(O)c5c4[C@@]2(CCN3CC2CC2)[C@H]1O5)c1nc(Cl)c2ccccc2c1O | 19.8% |
| O=C(CNC(=O)c1cc2ccccc2cn1)N[C@H]1CC[C@@]2(O)[C@H]3Cc4ccc(O)c5c4[C@@]2(CCN3CC2CC2)[C@H]1O5 | 13.9% |
| O=C(Cc1cc2ccccc2cn1)N[C@H]1CC[C@@]2(O)[C@H]3Cc4ccc(O)c5c4[C@@]2(CCN3CC2CC2)[C@H]1O5 | 18.6% |
| CN1Cc2ccccc2C[C@H]1C(=O)N[C@H]1CC[C@@]2(O)[C@H]3Cc4ccc(O)c5c4[C@@]2(CCN3CC2CC2)[C@H]1O5 | 24.8% |
| O=C(CCc1cc2ccccc2cn1)N[C@H]1CC[C@@]2(O)[C@H]3Cc4ccc(O)c5c4[C@@]2(CCN3CC2CC2)[C@H]1O5 | 27.4% |

The molecules below were run against T1, Mu-type opioid receptor (Mus musculus, UniProt P42866) (assay: Agonist activity at mouse mu opioid receptor expressed in CHO cells assessed as stimulation of [35S]-GTPgammaS binding after 1.5 hrs).
T1 sequence (P42866 whole entry): as above
Type: functional, cell-based

| SMILES | EC50 |
| --- | --- |
| Cc1nc(C(=O)N[C@H]2CC[C@@]3(O)[C@H]4Cc5ccc(O)c6c5[C@@]3(CCN4CC3CC3)[C@H]2O6)cc2ccccc12 | 7.2 nM |
| COc1c(C(=O)N[C@H]2CC[C@@]3(O)[C@H]4Cc5ccc(O)c6c5[C@@]3(CCN4CC3CC3)[C@H]2O6)nc(Cl)c2ccccc12 | 1.74 nM |
| O=C(N[C@H]1CC[C@@]2(O)[C@H]3Cc4ccc(O)c5c4[C@@]2(CCN3CC2CC2)[C@H]1O5)c1ncc2ccccc2c1O | 1.06 nM |
| O=C(N[C@H]1CC[C@@]2(O)[C@H]3Cc4ccc(O)c5c4[C@@]2(CCN3CC2CC2)[C@H]1O5)c1ncc2ccccc2n1 | 6 nM |
| N#Cc1nc(C(=O)N[C@H]2CC[C@@]3(O)[C@H]4Cc5ccc(O)c6c5[C@@]3(CCN4CC3CC3)[C@H]2O6)cc2ccccc12 | 3.32 nM |
| O=C(N[C@H]1CC[C@@]2(O)[C@H]3Cc4ccc(O)c5c4[C@@]2(CCN3CC2CC2)[C@H]1O5)c1nc(Cl)c2ccccc2c1O | 1.23 nM |
| O=C(CNC(=O)c1cc2ccccc2cn1)N[C@H]1CC[C@@]2(O)[C@H]3Cc4ccc(O)c5c4[C@@]2(CCN3CC2CC2)[C@H]1O5 | 14.1 nM |
| O=C(Cc1cc2ccccc2cn1)N[C@H]1CC[C@@]2(O)[C@H]3Cc4ccc(O)c5c4[C@@]2(CCN3CC2CC2)[C@H]1O5 | 4.6 nM |
| CN1Cc2ccccc2C[C@H]1C(=O)N[C@H]1CC[C@@]2(O)[C@H]3Cc4ccc(O)c5c4[C@@]2(CCN3CC2CC2)[C@H]1O5 | 19.4 nM |
| O=C(CCc1cc2ccccc2cn1)N[C@H]1CC[C@@]2(O)[C@H]3Cc4ccc(O)c5c4[C@@]2(CCN3CC2CC2)[C@H]1O5 | 1.14 nM |

Species on record: Mus musculus
Experiment: Selectivity ratio of Ki for mouse delta opioid receptor to Ki for mouse mu opioid receptor

| SMILES | Ratio Ki |
| --- | --- |
| O=C(N[C@H]1CC[C@@]2(O)[C@H]3Cc4ccc(O)c5c4[C@@]2(CCN3CC2CC2)[C@H]1O5)c1ncc2ccccc2n1 | 71 |
| N#Cc1nc(C(=O)N[C@H]2CC[C@@]3(O)[C@H]4Cc5ccc(O)c6c5[C@@]3(CCN4CC3CC3)[C@H]2O6)cc2ccccc12 | 131 |
| O=C(N[C@H]1CC[C@@]2(O)[C@H]3Cc4ccc(O)c5c4[C@@]2(CCN3CC2CC2)[C@H]1O5)c1nc(Cl)c2ccccc2c1O | 24 |
| O=C(CNC(=O)c1cc2ccccc2cn1)N[C@H]1CC[C@@]2(O)[C@H]3Cc4ccc(O)c5c4[C@@]2(CCN3CC2CC2)[C@H]1O5 | 3.4 |
| O=C(Cc1cc2ccccc2cn1)N[C@H]1CC[C@@]2(O)[C@H]3Cc4ccc(O)c5c4[C@@]2(CCN3CC2CC2)[C@H]1O5 | 10 |
| CN1Cc2ccccc2C[C@H]1C(=O)N[C@H]1CC[C@@]2(O)[C@H]3Cc4ccc(O)c5c4[C@@]2(CCN3CC2CC2)[C@H]1O5 | 3.2 |
| O=C(CCc1cc2ccccc2cn1)N[C@H]1CC[C@@]2(O)[C@H]3Cc4ccc(O)c5c4[C@@]2(CCN3CC2CC2)[C@H]1O5 | 12 |

Species on record: Mus musculus
Experiment: Selectivity ratio of Ki for mouse kappa opioid receptor to Ki for mouse mu opioid receptor

| SMILES | Ratio Ki |
| --- | --- |
| O=C(N[C@H]1CC[C@@]2(O)[C@H]3Cc4ccc(O)c5c4[C@@]2(CCN3CC2CC2)[C@H]1O5)c1ncc2ccccc2n1 | 4.6 |
| N#Cc1nc(C(=O)N[C@H]2CC[C@@]3(O)[C@H]4Cc5ccc(O)c6c5[C@@]3(CCN4CC3CC3)[C@H]2O6)cc2ccccc12 | 10 |
| O=C(N[C@H]1CC[C@@]2(O)[C@H]3Cc4ccc(O)c5c4[C@@]2(CCN3CC2CC2)[C@H]1O5)c1nc(Cl)c2ccccc2c1O | 25 |
| O=C(CNC(=O)c1cc2ccccc2cn1)N[C@H]1CC[C@@]2(O)[C@H]3Cc4ccc(O)c5c4[C@@]2(CCN3CC2CC2)[C@H]1O5 | 0.2 |
| O=C(Cc1cc2ccccc2cn1)N[C@H]1CC[C@@]2(O)[C@H]3Cc4ccc(O)c5c4[C@@]2(CCN3CC2CC2)[C@H]1O5 | 0.9 |
| CN1Cc2ccccc2C[C@H]1C(=O)N[C@H]1CC[C@@]2(O)[C@H]3Cc4ccc(O)c5c4[C@@]2(CCN3CC2CC2)[C@H]1O5 | 2.3 |
| O=C(CCc1cc2ccccc2cn1)N[C@H]1CC[C@@]2(O)[C@H]3Cc4ccc(O)c5c4[C@@]2(CCN3CC2CC2)[C@H]1O5 | 2.4 |

What follows are molecules tested against Delta-type opioid receptor (Mus musculus, UniProt P32300) (assay: Displacement of [3H]-naltrindole from mouse delta opioid receptor expressed in CHO cells after 1.5 hrs).
Chain of Delta-type opioid receptor (P32300 whole entry): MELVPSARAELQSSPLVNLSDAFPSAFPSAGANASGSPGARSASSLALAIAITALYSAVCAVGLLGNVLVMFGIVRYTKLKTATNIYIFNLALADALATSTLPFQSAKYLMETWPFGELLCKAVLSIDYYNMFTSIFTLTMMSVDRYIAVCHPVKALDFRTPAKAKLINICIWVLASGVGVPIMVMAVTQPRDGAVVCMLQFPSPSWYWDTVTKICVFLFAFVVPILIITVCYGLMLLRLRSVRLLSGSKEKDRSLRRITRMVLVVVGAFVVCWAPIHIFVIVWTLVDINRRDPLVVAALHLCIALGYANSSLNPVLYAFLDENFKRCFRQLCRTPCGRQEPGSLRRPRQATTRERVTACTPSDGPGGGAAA
Type: cell-based

| SMILES | Ki |
| --- | --- |
| Cc1nc(C(=O)N[C@H]2CC[C@@]3(O)[C@H]4Cc5ccc(O)c6c5[C@@]3(CCN4CC3CC3)[C@H]2O6)cc2ccccc12 | 117 nM |
| COc1c(C(=O)N[C@H]2CC[C@@]3(O)[C@H]4Cc5ccc(O)c6c5[C@@]3(CCN4CC3CC3)[C@H]2O6)nc(Cl)c2ccccc12 | 33.9 nM |
| O=C(N[C@H]1CC[C@@]2(O)[C@H]3Cc4ccc(O)c5c4[C@@]2(CCN3CC2CC2)[C@H]1O5)c1ncc2ccccc2c1O | 32.8 nM |
| O=C(N[C@H]1CC[C@@]2(O)[C@H]3Cc4ccc(O)c5c4[C@@]2(CCN3CC2CC2)[C@H]1O5)c1ncc2ccccc2n1 | 78.8 nM |
| N#Cc1nc(C(=O)N[C@H]2CC[C@@]3(O)[C@H]4Cc5ccc(O)c6c5[C@@]3(CCN4CC3CC3)[C@H]2O6)cc2ccccc12 | 130 nM |
| O=C(N[C@H]1CC[C@@]2(O)[C@H]3Cc4ccc(O)c5c4[C@@]2(CCN3CC2CC2)[C@H]1O5)c1nc(Cl)c2ccccc2c1O | 17.4 nM |
| O=C(N[C@H]1CC[C@@]2(O)[C@H]3Cc4ccc(O)c5c4[C@@]2(CCN3CC2CC2)[C@H]1O5)c1cc2ccccc2cn1 | 162 nM |
| O=C(CNC(=O)c1cc2ccccc2cn1)N[C@H]1CC[C@@]2(O)[C@H]3Cc4ccc(O)c5c4[C@@]2(CCN3CC2CC2)[C@H]1O5 | 9.2 nM |
| O=C(Cc1cc2ccccc2cn1)N[C@H]1CC[C@@]2(O)[C@H]3Cc4ccc(O)c5c4[C@@]2(CCN3CC2CC2)[C@H]1O5 | 12.5 nM |
| O=C(N[C@H]1CC[C@@]2(O)[C@H]3Cc4ccc(O)c5c4[C@@]2(CCN3CC2CC2)[C@H]1O5)c1cc2ccccc2c(Cl)n1 | 79.8 nM |
| CN1Cc2ccccc2C[C@H]1C(=O)N[C@H]1CC[C@@]2(O)[C@H]3Cc4ccc(O)c5c4[C@@]2(CCN3CC2CC2)[C@H]1O5 | 9.3 nM |
| O=C(CCc1cc2ccccc2cn1)N[C@H]1CC[C@@]2(O)[C@H]3Cc4ccc(O)c5c4[C@@]2(CCN3CC2CC2)[C@H]1O5 | 8.4 nM |

Each molecule was assayed against Kappa-type opioid receptor (Mus musculus, UniProt P33534) (assay: Displacement of [3H]-diprenorphine from mouse kappa opioid receptor expressed in CHO cells after 1.5 hrs).
Chain of Kappa-type opioid receptor (P33534 whole entry): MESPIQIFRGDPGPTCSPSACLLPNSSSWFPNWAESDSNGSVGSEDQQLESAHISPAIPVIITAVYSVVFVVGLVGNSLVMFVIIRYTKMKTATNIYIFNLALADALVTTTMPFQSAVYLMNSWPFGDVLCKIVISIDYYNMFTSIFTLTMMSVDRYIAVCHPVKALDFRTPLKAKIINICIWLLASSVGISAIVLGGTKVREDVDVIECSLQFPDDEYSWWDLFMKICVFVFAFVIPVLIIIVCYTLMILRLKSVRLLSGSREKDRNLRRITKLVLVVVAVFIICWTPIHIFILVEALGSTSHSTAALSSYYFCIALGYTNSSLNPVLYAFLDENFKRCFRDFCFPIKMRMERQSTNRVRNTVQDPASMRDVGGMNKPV
Type: cell-based

| SMILES | Ki |
| --- | --- |
| Cc1nc(C(=O)N[C@H]2CC[C@@]3(O)[C@H]4Cc5ccc(O)c6c5[C@@]3(CCN4CC3CC3)[C@H]2O6)cc2ccccc12 | 29.1 nM |
| COc1c(C(=O)N[C@H]2CC[C@@]3(O)[C@H]4Cc5ccc(O)c6c5[C@@]3(CCN4CC3CC3)[C@H]2O6)nc(Cl)c2ccccc12 | 22.2 nM |
| O=C(N[C@H]1CC[C@@]2(O)[C@H]3Cc4ccc(O)c5c4[C@@]2(CCN3CC2CC2)[C@H]1O5)c1ncc2ccccc2c1O | 4 nM |
| O=C(N[C@H]1CC[C@@]2(O)[C@H]3Cc4ccc(O)c5c4[C@@]2(CCN3CC2CC2)[C@H]1O5)c1ncc2ccccc2n1 | 5.1 nM |
| N#Cc1nc(C(=O)N[C@H]2CC[C@@]3(O)[C@H]4Cc5ccc(O)c6c5[C@@]3(CCN4CC3CC3)[C@H]2O6)cc2ccccc12 | 10.1 nM |
| O=C(N[C@H]1CC[C@@]2(O)[C@H]3Cc4ccc(O)c5c4[C@@]2(CCN3CC2CC2)[C@H]1O5)c1nc(Cl)c2ccccc2c1O | 18.3 nM |
| O=C(CNC(=O)c1cc2ccccc2cn1)N[C@H]1CC[C@@]2(O)[C@H]3Cc4ccc(O)c5c4[C@@]2(CCN3CC2CC2)[C@H]1O5 | 0.61 nM |
| O=C(Cc1cc2ccccc2cn1)N[C@H]1CC[C@@]2(O)[C@H]3Cc4ccc(O)c5c4[C@@]2(CCN3CC2CC2)[C@H]1O5 | 1.1 nM |
| O=C(N[C@H]1CC[C@@]2(O)[C@H]3Cc4ccc(O)c5c4[C@@]2(CCN3CC2CC2)[C@H]1O5)c1cc2ccccc2c(Cl)n1 | 10.8 nM |
| CN1Cc2ccccc2C[C@H]1C(=O)N[C@H]1CC[C@@]2(O)[C@H]3Cc4ccc(O)c5c4[C@@]2(CCN3CC2CC2)[C@H]1O5 | 6.76 nM |
| O=C(CCc1cc2ccccc2cn1)N[C@H]1CC[C@@]2(O)[C@H]3Cc4ccc(O)c5c4[C@@]2(CCN3CC2CC2)[C@H]1O5 | 1.61 nM |

Each molecule was assayed against T1, Mu-type opioid receptor (assay: Displacement of [3H]-naloxone from mouse mu opioid receptor expressed in CHO cells after 1.5 hrs).
Type: cell-based

| SMILES | Ki |
| --- | --- |
| Cc1nc(C(=O)N[C@H]2CC[C@@]3(O)[C@H]4Cc5ccc(O)c6c5[C@@]3(CCN4CC3CC3)[C@H]2O6)cc2ccccc12 | 2.1 nM |
| O=C(N[C@H]1CC[C@@]2(O)[C@H]3Cc4ccc(O)c5c4[C@@]2(CCN3CC2CC2)[C@H]1O5)c1ncc2ccccc2c1O | 0.45 nM |
| O=C(N[C@H]1CC[C@@]2(O)[C@H]3Cc4ccc(O)c5c4[C@@]2(CCN3CC2CC2)[C@H]1O5)c1ncc2ccccc2n1 | 1.11 nM |
| N#Cc1nc(C(=O)N[C@H]2CC[C@@]3(O)[C@H]4Cc5ccc(O)c6c5[C@@]3(CCN4CC3CC3)[C@H]2O6)cc2ccccc12 | 0.99 nM |
| O=C(N[C@H]1CC[C@@]2(O)[C@H]3Cc4ccc(O)c5c4[C@@]2(CCN3CC2CC2)[C@H]1O5)c1nc(Cl)c2ccccc2c1O | 0.73 nM |
| O=C(CNC(=O)c1cc2ccccc2cn1)N[C@H]1CC[C@@]2(O)[C@H]3Cc4ccc(O)c5c4[C@@]2(CCN3CC2CC2)[C@H]1O5 | 2.7 nM |
| O=C(Cc1cc2ccccc2cn1)N[C@H]1CC[C@@]2(O)[C@H]3Cc4ccc(O)c5c4[C@@]2(CCN3CC2CC2)[C@H]1O5 | 1.2 nM |
| CN1Cc2ccccc2C[C@H]1C(=O)N[C@H]1CC[C@@]2(O)[C@H]3Cc4ccc(O)c5c4[C@@]2(CCN3CC2CC2)[C@H]1O5 | 2.9 nM |
| O=C(CCc1cc2ccccc2cn1)N[C@H]1CC[C@@]2(O)[C@H]3Cc4ccc(O)c5c4[C@@]2(CCN3CC2CC2)[C@H]1O5 | 0.68 nM |
